From article PMC11388056 (Clinical and Translational Science, 2024)
Where two headings read alike, the source gives them in different places. Marks after values point to notes of the source that are not given here. Each block holds one compound with its values, some of them ahead of it.

What was measured:
P‐glycoprotein (P‐gp) = conditions: in vitro; cited from earlier work
[1] = for futibatinib CL/F: arithmetic mean ± SD
[2] = cited from earlier work
[3] = cited from earlier work; remark: listed apart in the source
[4] = participants with advanced solid tumors; cited from earlier work
Safety evaluation [5] = assay type: in vivo, human (healthy adults); conditions: part 1, treatments pooled
clinical [6] = conditions: human, plasma, 20 mg
[7] = Phase I DDI study part 1: plasma rosuvastatin PK with and without futibatinib; assay type: in vivo, human (healthy adults)
clinical [8] = conditions: human, plasma, oral, geometric mean (geometric CV%), n = 20
[9] = for digoxin CL/F: arithmetic mean ± SD
[10] = with itraconazole; cited from earlier work
Safety evaluation [11] = assay type: in vivo, human (healthy adults); conditions: part 2; of a total of 27 TEAEs
[12] = quinidine coadministration vs. futibatinib alone
[13] = after coadministration with futibatinib vs. rosuvastatin plus digoxin
[14] = digoxin + rosuvastatin, without futibatinib, arithmetic mean ± SD, 18 participants
[15] = digoxin + rosuvastatin, without futibatinib, median (min, max)

SMILES: C=CC(=O)N1CC[C@H](n2nc(C#Cc3cc(OC)cc(OC)c3)c3c(N)ncnc32)C1 [futibatinib]
substrate of P‐gp (P‐glycoprotein (P‐gp)): substrate
futibatinib CL/F ([1]; futibatinib + quinidine, n = 15): 34.3 ± 13.2 L/h
futibatinib AUCinf ([1]; futibatinib + quinidine, geometric mean (geometric CV%), n = 15): 627.0 (41.6) ng*h/mL
futibatinib CL/F ([1]; futibatinib alone, n = 24): 43.1 ± 40.8 L/h
increase in futibatinib C max and AUC [1, 12]: < 20%
magnitude of increase in futibatinib AUC0–24 [1, 12]: 16%
magnitude of increase in futibatinib AUCinf (exposure) [1, 12]: 17%
magnitude of increase in futibatinib C max [1, 12]: 8%
futibatinib AUC0–24 GMR (90% CI) ([1]; with vs. without quinidine): 116.4 (95.4–142.1) %
futibatinib AUCinf GMR (90% CI) ([1]; with vs. without quinidine): 117.0 (96.0–142.7) %
futibatinib C max GMR (90% CI) ([1]; with vs. without quinidine): 108.0 (90.9–128.3) %
futibatinib exposure increased ([2]; coadministered with itraconazole (dual P‐gp and CYP3A inhibitor)): 41%–51%
futibatinib exposure decreased ([2]; coadministered with rifampin (dual P‐gp and CYP3A inducer)): 53%–64%
difference in futibatinib exposure ([3]; administered with or without lansoprazole): no significant differences
futibatinib bioavailability lower ([3]; fed versus fasted conditions, healthy participants): 11.2%
terminal elimination half‐life (t ½) [4]: approximately 3 h
TEAE diarrhea (Safety evaluation [5]): 80%
TEAE increased blood phosphate (Safety evaluation [5]): 75%
Vd/F (clinical [6]; oral): 132 ± 72.2 L
half-life (clinical [6]; oral): 2.5 ± 0.83 h
AUC(0-inf) (clinical [6]; oral, futibatinib AUCinf, futibatinib alone, geometric mean (geometric CV%), n = 24): 582 ng·h/mL
AUC(0-t) (clinical [6]; po): 580 ng·h/mL

geometric mean rosuvastatin AUCs higher [7, 13]: ≤ 18.8%
geometric mean rosuvastatin C max higher [7, 13]: 10.2%
rosuvastatin CL/F ([7]; digoxin + rosuvastatin with futibatinib, arithmetic mean ± SD): 207.2 ± 105.7 L/h
rosuvastatin CL/F [7, 14]: 247.3 ± 167.2 ^c L/h
rosuvastatin t ½ [7, 14]: 16.7 ± 8.5 ^c h
rosuvastatin T max [7, 15]: 4.0 (1.0, 6.1) h
AUC(0-inf) ([7]; human, plasma, oral, rosuvastatin AUCinf, digoxin + rosuvastatin, without futibatinib, geometric mean (geometric CV%), 18 participants): 46.9 ng·h/mL
increase in rosuvastatin C max and AUC ([7]; with vs. without futibatinib): < 20%
rosuvastatin AUC0–72 GMR (90% CI) ([7]; with vs. without futibatinib): 118.8 (107.9–130.7) %
rosuvastatin AUCinf GMR (90% CI) ([7]; with vs. without futibatinib): 113.5 (102.6–125.5) %
rosuvastatin C max GMR (90% CI) ([7]; with vs. without futibatinib): 110.2 (97.3–124.8) %
SMILES: CC(C)c1nc(N(C)S(C)(=O)=O)nc(-c2ccc(F)cc2)c1/C=C/[C@@H](O)C[C@@H](O)CC(=O)O [rosuvastatin]

AUC(0-inf) (clinical [8]; digoxin AUCinf, digoxin + rosuvastatin, without futibatinib): 17.7 ng·h/mL
Cmax (clinical [8]; digoxin C max, digoxin + rosuvastatin with futibatinib 20 mg once daily): 0.953 ng/mL
digoxin CL/F ([9]; digoxin + rosuvastatin with futibatinib, 19 participants): 14.6 ± 5.4 ^a L/h
digoxin CL/F ([9]; digoxin + rosuvastatin, without futibatinib): 14.6 ± 4.1 L/h
digoxin T max [9, 15]: 1.0 (0.67, 2.0) h
mean digoxin renal clearance lower ([9]; digoxin administered with futibatinib vs. without): 13%
delay of median digoxin T max ([9]; following digoxin, rosuvastatin and futibatinib vs. without futibatinib): ~ 0.3 h
difference in digoxin C max and AUC ([9]; with and without futibatinib): < 20%
digoxin AUC0–120 GMR (90% CI) ([9]; with vs. without futibatinib): 103.9 (94.5–114.2) %
digoxin AUCinf GMR (90% CI) ([9]; with vs. without futibatinib): 100.2 (90.8–110.5) %
digoxin C max GMR (90% CI) ([9]; with vs. without futibatinib): 95.1 (81.1–111.5) %
digoxin CLr GMR (90% CI) ([9]; with vs. without futibatinib): 87.1 (80.8–93.9) %
SMILES: C[C@H]1O[C@@H](O[C@H]2[C@@H](O)C[C@H](O[C@H]3[C@@H](O)C[C@H](O[C@H]4CC[C@@]5(C)[C@H](CC[C@@H]6[C@@H]5C[C@@H](O)[C@]5(C)[C@@H](C7=CC(=O)OC7)CC[C@]65O)C4)O[C@@H]3C)O[C@@H]2C)C[C@H](O)[C@@H]1O [digoxin]

SMILES: CCN1C(=O)N(c2c(F)c(OC)cc(OC)c2F)Cc2cnc3[nH]c(CN4CCOCC4)cc3c21 [pemigatinib]
increase in pemigatinib AUC [10]: 88%
increase in pemigatinib C max [10]: 17%

SMILES: C=C[C@H]1C[N@@]2CC[C@H]1C[C@@H]2[C@@H](O)c1ccnc2ccc(OC)cc12 [quinidine]
TEAEs considered by the investigator to be related to the drug (Safety evaluation [11]): 22 events
